Assay results as given in patent US20040138238A1, “Substituted aminopyrimidine compounds as neurokinin antagonists” (priority 2002, published 2004).
Read-outs that look alike come from different tables or passages of the source.

What was measured:
[1] = biological target: NK1 receptors (Homo sapiens, UniProt P25103); experiment: in vitro binding to NK1 receptors
Description: (§1) The activity of compounds of the invention were tested in vitro for binding to NK1 and NK2 receptors.

[2] = biological target: T1, NK2 receptors (Homo sapiens, UniProt P21452); experiment: in vitro binding to NK2 receptors; parameters: Ki (NK2), % @ 1000: concentration or dose not given beside the values; settings: for Ki (NK2), % @ 1000: @ 1000 (concentration unit not given)
T1 sequence (P21452 1-398): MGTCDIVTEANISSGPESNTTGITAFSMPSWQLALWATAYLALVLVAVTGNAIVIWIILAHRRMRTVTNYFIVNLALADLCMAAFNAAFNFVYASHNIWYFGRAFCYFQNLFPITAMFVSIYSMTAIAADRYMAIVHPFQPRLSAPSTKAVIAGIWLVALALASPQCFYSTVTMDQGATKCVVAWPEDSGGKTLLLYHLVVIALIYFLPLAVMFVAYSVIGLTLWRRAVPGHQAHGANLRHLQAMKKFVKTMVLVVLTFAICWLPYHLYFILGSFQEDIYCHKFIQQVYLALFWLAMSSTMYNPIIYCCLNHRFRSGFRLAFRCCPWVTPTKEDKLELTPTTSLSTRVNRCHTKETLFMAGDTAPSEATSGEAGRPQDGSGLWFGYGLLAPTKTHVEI
Description: as §1

NK1 receptors, sequence (P25103 whole entry): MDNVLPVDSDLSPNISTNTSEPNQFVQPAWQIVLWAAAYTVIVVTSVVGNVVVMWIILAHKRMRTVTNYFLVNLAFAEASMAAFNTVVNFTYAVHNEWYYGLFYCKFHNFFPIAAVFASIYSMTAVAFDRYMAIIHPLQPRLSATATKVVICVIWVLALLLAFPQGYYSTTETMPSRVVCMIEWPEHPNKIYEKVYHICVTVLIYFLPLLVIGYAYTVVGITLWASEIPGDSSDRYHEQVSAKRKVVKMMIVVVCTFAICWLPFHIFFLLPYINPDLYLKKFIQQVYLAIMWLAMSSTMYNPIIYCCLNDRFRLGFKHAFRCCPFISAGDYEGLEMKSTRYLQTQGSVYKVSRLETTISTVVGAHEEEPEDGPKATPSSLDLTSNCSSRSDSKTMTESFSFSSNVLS

| Compound | Ki [1] | Ki (NK2), % @ 1000 [2] | Ki ([2]; unit inferred) | Ki [2] |
| --- | --- | --- | --- | --- |
| Cl.OC(CNC1CCN(c2ncnc3scc(-c4ccccc4)c23)CC1)COc1ccc(C(F)(F)F)cc1 (centres unmarked) [[2-Hydroxy-3-(4-trifluoromethyl-phenoxy)-propyl]-[1-(5-phenyl-thieno[2,3-d]pyrimidin-4-yl)-piperidin-4-yl]-ammonium; chloride] | 53 nM | 14% @ | – | – |
| OC(CNC1CCN(c2ncnc3scc(-c4ccccc4)c23)CC1)COc1cc(F)cc(F)c1 (centres unmarked) [1-(3,5-Difluoro-phenoxy)-3-[1-(5-phenyl-thieno[2,3-d]pyrimidin-4-yl)-piperidin-4-ylamino]-propan-2-ol] | 272 nM | 21% @ | – | – |
| OC(CNC1CCN(c2ncnc3scc(-c4ccccc4)c23)CC1)COc1ccc2c(c1)OCO2 (centres unmarked) [1-(Benzo[1,3]dioxol-5-yloxy)-3-[1-(5-phenyl-thieno[2,3-d]pyrimidin-4-yl)-piperidin-4-ylamino]-propan-2-ol] | 7.6 nM | – | > 10000 nM | – |
| Fc1ccc(OCC2CN(C3CCN(c4ncnc5scc(-c6ccccc6)c45)CC3)CCO2)cc1 (centres unmarked) [4-{4-[2-(4-Fluoro-phenoxymethyl)-morpholin-4-yl]-piperidin-1-yl}-5-phenyl-thieno[2,3-d]pyrimidine] | 472 nM | – | – | – |
| Cc1csc2ncnc(N3CCC(NCC(O)COc4ccc5c(c4)OCO5)CC3)c12 (centres unmarked) [1-(Benzo[1,3]dioxol-5-yloxy)-3-[1-(5-methyl-thieno[2,3-d]pyrimidin-4-yl)-piperidin-4-ylamino]-propan-2-ol] | 868 nM | – | – | – |
| OC(CNC1CCN(c2ncnc3scc(-c4ccccc4)c23)CC1)COc1ccc(Cl)c(Cl)c1 (centres unmarked) [1-(3,4-Dichloro-phenoxy)-3-[1-(5-phenyl-thieno[2,3-d]pyrimidin-4-yl)-piperidin-4-ylamino]-propan-2-ol] | 268 nM | – | 3390 nM | – |
| O=C1COC(COc2ccc3c(c2)OCO3)CN1C1CCN(c2ncnc3scc(-c4ccccc4)c23)CC1 (centres unmarked) [6-(Benzo[1,3]dioxol-5-yloxymethyl)-4-[1-(5-phenyl-thieno[2,3-d]pyrimidin-4-yl)-piperidin-4-yl]-morpholin-3-one] | 1320 nM | – | – | – |
| COc1cc(OCC(O)CNC2CCN(c3ncnc4scc(-c5ccccc5)c34)CC2)ccc1Cl (centres unmarked) [1-(4-Chloro-3-methoxy-phenoxy)-3-[1-(5-phenyl-thieno[2,3-d]pyrimidin-4-yl)-piperidin-4-ylamino]-propan-2-ol] | 126 nM | 47% @ | – | – |
| COc1ccc(OCC(O)CNC2CCN(c3ncnc4scc(-c5ccccc5)c34)CC2)cc1 (centres unmarked) [1-(4-Methoxy-phenoxy)-3-[1-(5-phenyl-thieno[2,3-d]pyrimidin-4-yl)-piperidin-4-ylamino]-propan-2-ol] | 53 nM | – | – | 1700 nM |
| OC(CNC1CCN(c2ncnc3scc(-c4ccccc4)c23)CC1)COc1cc(C(F)(F)F)cc(C(F)(F)F)c1 (centres unmarked) [1-(3,5-Bis-trifluoromethyl-phenoxy)-3-[1-(5-phenyl-thieno[2,3-d]pyrimidin-4-yl)-piperidin-4-ylamino]-propan-2-ol] | 1310 nM | – | > 1000 nM | – |
| COc1ccc(OCC(O)CNC2CCN(c3ncnc4scc(-c5ccccc5)c34)CC2)cc1OC (centres unmarked) [1-(3,4-Dimethoxy-phenoxy)-3-[1-(5-phenyl-thieno[2,3-d]pyrimidin-4-yl)-piperidin-4-ylamino]-propan-2-ol] | 126 nM | – | 6250 nM | – |
| OC(CNC1CCN(c2ncnc3scc(-c4ccccc4)c23)CC1)COc1ccc(F)c(F)c1 (centres unmarked) [1-(3,4-Difluoro-phenoxy)-3-[1-(5-phenyl-thieno[2,3-d]pyrimidin-4-yl)-piperidin-4-ylamino]-propan-2-ol] | 75 nM | 28% @ | – | – |
| OC(CNC1CCN(c2ncnc3scc(-c4ccccc4)c23)CC1)COc1ccc(OC(F)(F)F)cc1 (centres unmarked) [1-[1-(5-Phenyl-thieno[2,3-d]pyrimidin-4-yl)-piperidin-4-ylamino]-3-(4-trifluoromethoxy-phenoxy)-propan-2-ol] | 15 nM | 49% @ | – | – |
| OC(CNC1CCN(c2ncnc3scc(-c4ccccc4)c23)CC1)COCc1ccccc1 (centres unmarked) [(3-Benzyloxy-2-hydroxy-propyl)-[1-(5-phenyl-thieno[2,3-d]pyrimidin-4-yl)-piperidin-4-yl]-ammonium; chloride] | 141 nM | – | – | 2400 nM |

More lines, in order of falling Ki [1], values ahead:

| Ki [1] | Ki (NK2), % @ 1000 [2] | Ki ([2]; unit inferred) | Ki [2] | Compound |
| --- | --- | --- | --- | --- |
| 1860 nM | – | – | – | c1ccc(-c2csc3ncnc(N4CCC(N5CCOC(COc6ccc7c(c6)OCO7)C5)CC4)c23)cc1 (centres unmarked) [4-{4-[2-(Benzo[1,3]dioxol-5-yloxymethyl)-morpholin-4-yl]-piperidin-1-yl}-5-phenyl-thieno[2,3-d]pyrimidine] |
| 1830 nM | – | – | – | OC(CNC1CCN(c2ncnc3sccc23)CC1)COc1ccc2c(c1)OCO2 (centres unmarked) [1-(Benzo[1,3]dioxol-5-yloxy)-3-(1-thieno[2,3-d]pyrimidin-4-yl-piperidin-4-ylamino)-propan-2-ol] |
| 910 nM | – | > 10000 nM | – | OC(CNC1CCN(c2ncnc3scc(-c4ccccc4)c23)CC1)COc1ccc(Cl)cc1 (centres unmarked) [[3-(4-Chloro-phenoxy)-2-hydroxy-propyl]-[1-(5-phenyl-thieno[2,3-d]pyrimidin-4-yl)-piperidin-4-yl]-ammonium; chloride] |
| 286 nM | – | – | – | OC(CNC1CCN(c2ncnc3scc(-c4ccccc4)c23)CC1)COc1ccc(F)cc1F (centres unmarked) [1-(2,4-Difluoro-phenoxy)-3-[1-(5-phenyl-thieno[2,3-d]pyrimidin-4-yl)-piperidin-4-ylamino]-propan-2-ol] |
| 137 nM | – | – | – | OC(CNC1CCN(c2ncnc3scc(-c4ccccc4)c23)CC1)COc1ccc(F)c(Cl)c1 (centres unmarked) [1-(3-Chloro-4-fluoro-phenoxy)-3-[1-(5-phenyl-thieno[2,3-d]pyrimidin-4-yl)-piperidin-4-ylamino]-propan-2-ol] |
| 109 nM | – | 1570 nM | – | COc1ccc(OCC(O)CNC2CCN(c3ncnc4scc(-c5ccccc5)c34)CC2)c(Cl)c1 (centres unmarked) [1-(2-Chloro-4-methoxy-phenoxy)-3-[1-(5-phenyl-thieno[2,3-d]pyrimidin-4-yl)-piperidin-4-ylamino]-propan-2-ol] |
| 20 nM | 28% @ | – | – | Cl.OC(CNC1CCN(c2ncnc3scc(-c4ccccc4)c23)CC1)COc1ccc(Cl)c(Cl)c1 (centres unmarked) [[3-(3,4-Dichloro-phenoxy)-2-hydroxy-propyl]-[1-(5-phenyl-thieno[2,3-d]pyrimidin-4-yl)-piperidin-4-yl]-ammonium; chloride] |
